Common to all, as to test: MTT cell viability assay
Assay type in all cases: cell-based
On the technique in general: Formazan colour is commonly taken as a measure of viable cells.

The test system of one assay is SKMM1. The conditions noted are these: SKMM1, Multiple Myeloma, RPMI 10% FBS. From the text: (§1) A total of 60 cell lines representative of different cancer types were obtained from the ATCC and grown and maintained in accordance with the provided guidelines. The cell lines represented the following distinct histologies: mantle cell lymphoma (5 lines: JVM13, Rec1, Mino, JVM2, Jeko); germinal center B-cell derived (“GCB”) DLBCL (19 lines: Farage, BJAB, Ly1, Ly2, Ly7, Ly8, Ly19, HBL2, HT, Karpas422, Pfeiffer, RCK8, RL, Sci-1, Ski, SUDHL4, SUDHL7, Toledo, WSU-NHL); primary mediastinal B-cell lymphoma (“PMBL”) (3 lines: K1106, MEDB1, U2940); Burkitt lymphoma (11 lines: Daudi, CA46, EB1, EB2, EB3, Jijoye, Raji, Ramos, Namwala, BL2, BL41); Hodgkin lymphoma (3 lines: RMPI6666, L1236, L428); activated B-cell derived (“ABC”) DLBCL (6 lines: Ly3, HBL1, TMD8, Ly10, Riva, U2932); multiple myeloma (6 lines: U266, SKMM1, RPMI8226, KMS12, IM9, H929); acute myelogenous leukemia (“AML”) (2 lines: U937, KG1); acute lymphoblastic leukemia (“ALL”) (2 lines: Reh, SR); and T-cell lymphoma (3 lines: Molt4, RPMI8402, Jurkat). The cell lines were tested within six months after resuscitation.
(§2) The 3-(4,5-dimethylthiazol-2-yl)-2,5-diphenyltetrazolium bromide (MTT) cell viability assay was used to determine cell viability in response to drug treatment. Five replicates per concentration tested were carried out in serial dilutions with a total of ten concentrations with a 50% reduction in drug concentration per dilution for each plate. A total of 15 μl of MTT reagent was added to each drug-treated well and incubated for three hours in 37° C. Detergent was added to each drug-treated well and incubated overnight at room temperature without exposure to light. Absorbance was measured at 570 nm using a plate reader from Tecan Group. The IC50 concentration was determined using the publicly available ED50 plus v1.0 software program.

The next assay relates to JVM2. The note with it: Homo sapiens, JVM-2; JVM2, MantleCellLymphoma, RPMI 10% FBS.
Source text: as §1, §2

The test system of the next assay is RMPI6666. The conditions noted are these: RMPI6666, Hodgkin Lymphoma, RPMI 10% FBS.
Source text: as §1, §2

Another assay concerns SR. The conditions noted are these: Homo sapiens, ALL, RPMI 10% FBS.
Source text: as §1, §2

Another assay has as its system U2932. The note with it: Homo sapiens; U2932, ABC DLBCL, RPMI 10% FBS.
Source text: as §1, §2

In another assay the test system is L428. The note with it: Homo sapiens, L-428; L428, Hodgkin Lymphoma, RPMI 10% FBS.
Source text: as §1, §2

For another assay, the system named is JVM13. The note with it: JVM13, MantleCellLymphoma, RPMI 10% FBS.
Source text: as §1, §2

For a further assay, the system named is RPMI8402. The conditions noted are these: Homo sapiens, RPMI 8402; RPMI8402, T-cell, RPMI 10% FBS.
Source text: as §1, §2

For another assay, the system named is Jurkat. The conditions noted are these: Homo sapiens, T-cell, RPMI 10% FBS.
Source text: as §1, §2

The test system of the next assay is Riva. The conditions noted are these: ABC DLBCL, RPMI 10% FBS.
Source text: as §1, §2

In the next assay the test system is LY8. The note with it: LY8, GCB DLBCL, OCI.
Source text: as §1, §2

The next assay has as its system BL2. The note with it: BL2, Burkitt Lymphoma, RPMI 10% FBS.
Source text: as §1, §2

The subject of another assay is KMS12. The note with it: KMS12, Multiple Myeloma, RPMI 10% FBS.
Source text: as §1, §2

In another assay the test system is BL41. The conditions noted are these: Homo sapiens, BL-41; BL41, Burkitt Lymphoma, RPMI 10% FBS.
Source text: as §1, §2

For a further assay, the system named is Ski. The conditions noted are these: GCB DLBCL, RPMI 10% FBS.
Source text: as §1, §2

Another assay relates to HBL1. The conditions noted are these: HBL1, ABC DLBCL, RPMI 10% FBS.
Source text: as §1, §2

Another assay concerns U2940. The conditions noted are these: Homo sapiens, U-2940; U2940, PMBL, RPMI 10% FBS.
Source text: as §1, §2

A further assay concerns U266. The conditions noted are these: Homo sapiens, U-266; U266, Multiple Myeloma, RPMI 15% FBS.
Source text: as §1, §2

In a further assay the test system is Toledo. The conditions noted are these: Homo sapiens, GCB DLBCL, RPMI 10% FBS.
Source text: as §1, §2

Another assay concerns HBL2. The conditions noted are these: HBL2, GCB DLBCL, RPMI 10% FBS.
Source text: as §1, §2

A further assay deals with LY10. The conditions noted are these: LY10, ABC DLBCL, OCI.
Source text: as §1, §2

The next assay has as its system HT. The conditions noted are these: Homo sapiens, GCB DLBCL, RPMI 10% FBS.
Source text: as §1, §2

For another assay, the system named is Ramos. The conditions noted are these: Homo sapiens, Burkitt Lymphoma, RPMI 10% FBS.
Source text: as §1, §2

pIC50: −log10 of the molar value.

`Nc1cc(C(F)(F)F)c(-c2cc(N3CCOCC3)nc(N3CCOCC3)n2)cn1` [BKM120]: the pIC50 – broadly, the negative decadic logarithm of the IC50, by convention in mol/L – was 6.08 in the assay on SKMM1; 5.86 in the assay on JVM2; 5.48 in the assay on RMPI6666; 6.09 in the assay with SR; 5.27 with U2932; 5.73 in the assay on L428. In addition, the pIC50 in the assay on JVM13 was 6.03; in the assay on RPMI8402 it was 5.91; in the assay on Jurkat, 5.92; with Riva it was 6.32; in the assay with LY8, 5.86; with BL2 it was 6.14. The negative-log IC50 (pIC50) in the assay with KMS12 is 6.02; in the assay on BL41 it was 5.30; with Ski, 6.63; in the assay with HBL1, 5.78; in the assay on U2940, 5.35; in the assay on U266, 5.25. Further, the pIC50 is 5.70 with Toledo; 5.85 in the assay with HBL2; 5.82 with LY10; 6.36 in the assay on HT; 5.98 in the assay on Ramos.
Turning to `Cn1c(=O)n(-c2ccc(C(C)(C)C#N)cc2)c2c3cc(-c4cnc5ccccc5c4)ccc3ncc21` [BEZ235], the pIC50 in the assay with SKMM1 was 7.32; with JVM2, 6.31; in the assay with RMPI6666, 7.28; in the assay on SR it was 7.19; in the assay on U2932 it was 7.02; in the assay with L428, 7.84. Moreover, the pIC50 with JVM13 is 6.06; in the assay on RPMI8402 it was 6.66; in the assay on Jurkat it was 7.48; in the assay on Riva, 6.29; in the assay with LY8 it was 6.16; in the assay on BL2, 7.30. In addition, the pIC50 with KMS12 was 7.64; in the assay with BL41, 7.93; with Ski, 7.60; in the assay with HBL1, 7.14; with U2940, 7.45; with U266 it was 6.78. Further, the pIC50 is 7.69 in the assay on Toledo; 5.81 in the assay on HBL2; 5.03 in the assay with LY10; 5.58 with HT; 7.29 in the assay on Ramos.

Source of the values: patent publication US9861625B2, “Methods and compositions for treating cancer through inhibition of PI3K” (Duke University, priority 2014, dated 2018).
